Experimental data as given in patent US10752609B2, “GSK-3 inhibitors” (priority 2016, dated 2020).

Experiments:
[1] = target: GSK3β (Homo sapiens, UniProt P49841); assay: GSK3β kinase assay (Caliper LabChip3000 mobility shift, fluoresceinated peptide substrate); assay type: biochemical; conditions: 250 pM enzyme, 20 uM ATP, 1.5 uM peptide, 20 hours room temperature; first value of cell GSK3β/GSK3α; read-out: GSK3β (nM), IC50
Experimental: (§1) The kinase assay was performed in V-bottom 384-well plates. […] The reaction was incubated at room temperature for 20 hours and terminated by adding 45 μl of 35 mM EDTA to each sample. The reaction mixture was analyzed on the Caliper LabChip3000 (Caliper, Hopkinton, Mass.) by electrophoretic separation of the unphosphorylated substrate and phosphorylated product. […] Compounds were dissolved at 10 mM in dimethylsulfoxide (DMSO) and evaluated at eleven concentrations. IC50 values were derived by non-linear regression analysis.

[2] = tested on: pTau; assay: pTau assay (no method described); assay type: cell-based
[3] = target: GSK3α (Homo sapiens, UniProt P49840); assay: GSK3α kinase assay (Caliper LabChip3000 mobility shift, fluoresceinated peptide substrate)
GSK3α, sequence (P49840 whole entry, species assumed): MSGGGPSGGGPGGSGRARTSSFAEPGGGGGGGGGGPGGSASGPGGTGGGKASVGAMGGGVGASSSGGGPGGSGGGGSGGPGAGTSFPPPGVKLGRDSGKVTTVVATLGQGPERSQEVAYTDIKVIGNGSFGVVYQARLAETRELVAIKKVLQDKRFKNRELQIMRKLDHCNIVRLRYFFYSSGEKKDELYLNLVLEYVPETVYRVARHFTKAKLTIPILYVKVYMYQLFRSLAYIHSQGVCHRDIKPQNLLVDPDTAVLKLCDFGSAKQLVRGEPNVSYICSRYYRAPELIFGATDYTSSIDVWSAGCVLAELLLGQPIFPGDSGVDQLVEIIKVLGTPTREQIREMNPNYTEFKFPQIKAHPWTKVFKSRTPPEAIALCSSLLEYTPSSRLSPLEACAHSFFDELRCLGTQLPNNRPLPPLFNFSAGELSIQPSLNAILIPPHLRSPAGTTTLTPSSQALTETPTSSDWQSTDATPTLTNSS
Experimental: as §1

GSK3β, sequence (P49841 whole entry, species assumed): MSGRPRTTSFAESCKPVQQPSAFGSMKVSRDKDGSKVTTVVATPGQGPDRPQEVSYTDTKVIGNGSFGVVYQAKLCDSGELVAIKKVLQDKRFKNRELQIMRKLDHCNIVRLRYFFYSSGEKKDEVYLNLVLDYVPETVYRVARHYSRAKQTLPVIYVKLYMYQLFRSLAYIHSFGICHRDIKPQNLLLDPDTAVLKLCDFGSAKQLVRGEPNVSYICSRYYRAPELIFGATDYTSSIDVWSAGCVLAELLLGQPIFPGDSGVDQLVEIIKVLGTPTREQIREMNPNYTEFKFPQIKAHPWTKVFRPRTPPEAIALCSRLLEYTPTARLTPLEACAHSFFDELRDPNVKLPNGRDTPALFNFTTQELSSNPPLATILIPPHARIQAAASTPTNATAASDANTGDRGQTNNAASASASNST

Compound O=C(Nc1cnccc1OCC(F)(F)F)c1ccnc(Nc2ccc(F)cc2)n1 [Example 55, 2-((4-Fluorophenyl)amino)-N-(4-(2,2,2-trifluoroethoxy)pyridin-3-yl)pyrimidine-4-carboxamide] has an IC50 [1] of 0.26 nM, an IC50 [2] of 7.6 nM and an IC50 [3] of 0.16 nM.
Work on O=C(Nc1cnccc1OCC(F)(F)F)c1ccnc(Nc2ccc(Cl)cc2)n1 [Example 56, 2-((4-Chlorophenyl)amino)-N-(4-(2,2,2-trifluoroethoxy)pyridin-3-yl)pyrimidine-4-carboxamide] yielded an IC50 [1] of 0.25 nM, an IC50 [2] of 5.9 nM and an IC50 [3] of 0.15 nM.
Work on N#Cc1ccc(Nc2nccc(C(=O)Nc3cnccc3OCC(F)(F)F)n2)cc1 [Example 57, 2-((4-Cyanophenyl)amino)-N-(4-(2,2,2-trifluoroethoxy)pyridin-3-yl)pyrimidine-4-carboxamide] yielded an IC50 [1] of 0.08 nM, an IC50 [2] of 1.4 nM and an IC50 [3] of 0.07 nM.
Compound O=C(Nc1cnccc1OCC(F)(F)F)c1ccnc(Nc2ccc(C(F)(F)F)cc2)n1 [Example 58, N-(4-(2,2,2-Trifluoroethoxy)pyridin-3-yl)-2-((4-(trifluoromethyl)phenyl)amino)pyrimidine-4-carboxamide] has an IC50 [1] of 0.3 nM, an IC50 [2] of 10 nM and an IC50 [3] of 0.18 nM.
Compound O=C(Nc1cnccc1OCC(F)(F)F)c1ccnc(Nc2ccc(OC(F)(F)F)cc2)n1 [Example 59, N-(4-(2,2,2-Trifluoroethoxy)pyridin-3-yl)-2-((4-(trifluoromethoxy)phenyl)amino)pyrimidine-4-carboxamide] has an IC50 [1] of 0.18 nM, an IC50 [2] of 8.2 nM and an IC50 [3] of 0.21 nM.
O=C(Nc1cnccc1OCC(F)(F)F)c1ccnc(Nc2ccc(Cl)cc2F)n1 [Example 61, 2-((4-Chloro-2-fluorophenyl)amino)-N-(4-(2,2,2-trifluoroethoxy)pyridin-3-yl)pyrimidine-4-carboxamide] gave an IC50 [1] of 0.72 nM, an IC50 [2] of 230 nM and an IC50 [3] of 0.39 nM.
With COc1ccc(Nc2nccc(C(=O)Nc3cnccc3OCC(F)(F)F)n2)cc1F [Example 62, 2-((3-Fluoro-4-methoxyphenyl)amino)-N-(4-(2,2,2-trifluoroethoxy)pyridin-3-yl)pyrimidine-4-carboxamide] the IC50 [1] was 0.08 nM, the IC50 [2] was 230 nM and the IC50 [3] was 0.09 nM.
O=C(Nc1cnccc1OCC(F)(F)F)c1ccnc(Nc2ccc(OC(F)F)nc2)n1 [Example 63, 2-((6-(Difluoromethoxy)pyridin-3-yl)amino)-N-(4-(2,2,2-trifluoroethoxy)pyridin-3-yl)pyrimidine-4-carboxamide] was tested, and the IC50 [1] was 0.18 nM, the IC50 [2] was 3 nM and the IC50 [3] was 0.13 nM.
Compound O=C(Nc1cnccc1OCC(F)(F)F)c1ccnc(Nc2ccc(C(F)(F)F)nc2)n1 [Example 64, N-(4-(2,2,2-Trifluoroethoxy)pyridin-3-yl)-2-((6-(trifluoromethyl)pyridin-3-yl)amino)pyrimidine-4-carboxamide] has an IC50 [1] of 0.2 nM, an IC50 [2] of 8.5 nM and an IC50 [3] of 0.19 nM.
For CC(C)OCCCNc1nccc(C(=O)Nc2cnccc2OCC(F)(F)F)n1 [Example 65, 2-((3-Isopropoxypropyl)amino)-N-(4-(2,2,2-trifluoroethoxy)pyridin-3-yl)pyrimidine-4-carboxamide], the IC50 [1] was 2 nM, the IC50 [2] was 86 nM and the IC50 [3] was 1.4 nM.
Compound N#Cc1ccc(Nc2nccc(C(=O)Nc3cncnc3OCC(F)(F)F)n2)cc1 [Example 66, 2-((4-Cyanophenyl)amino)-N-(4-(2,2,2-trifluoroethoxy)pyrimidin-5-yl)pyrimidine-4-carboxamide] has an IC50 [1] of 1 nM, an IC50 [2] of 22 nM and an IC50 [3] of 0.67 nM.
In the case of O=C(Nc1cncnc1OCC(F)(F)F)c1ccnc(Nc2ccc(Cl)cc2)n1 [Example 67, 2-((4-Chlorophenyl)amino)-N-(4-(2,2,2-trifluoroethoxy)pyrimidin-5-yl)pyrimidine-4-carboxamide], the IC50 [1] is reported as 0.97 nM, the IC50 [2] is reported as 90 nM and the IC50 [3] is reported as 0.36 nM.
O=C(Nc1cncnc1OCC(F)(F)F)c1ccnc(Nc2ccc(C(F)(F)F)cc2)n1 [Example 68, N-(4-(2,2,2-Trifluoroethoxy)pyrimidin-5-yl)-2-((4-(trifluoromethyl)phenyl)amino)pyrimidine-4-carboxamide] showed an IC50 [1] of 0.73 nM, an IC50 [2] of 90 nM and an IC50 [3] of 1.3 nM.
O=C(Nc1cncnc1OCC(F)(F)F)c1ccnc(Nc2ccc(OC(F)(F)F)cc2)n1 [Example 69, N-(4-(2,2,2-Trifluoroethoxy)pyrimidin-5-yl)-2-((4-(trifluoromethoxy)phenyl)amino)pyrimidine-4-carboxamide] showed an IC50 [1] of 0.56 nM, an IC50 [2] of 160 nM and an IC50 [3] of 0.6 nM.
Compound O=C(Nc1cncnc1OCC(F)(F)F)c1ccnc(Nc2ccc(Cl)cc2F)n1 [Example 71, 2-((4-Chloro-2-fluorophenyl)amino)-N-(4-(2,2,2-trifluoroethoxy)pyrimidin-5-yl)pyrimidine-4-carboxamide] has an IC50 [1] of 8 nM, an IC50 [2] of 1000 nM and an IC50 [3] of 4.2 nM.
Compound O=C(Nc1cncnc1OCC(F)(F)F)c1ccnc(Nc2cc(F)c(Cl)cc2F)n1 [Example 72, 2-((4-Chloro-2,5-difluorophenyl)amino)-N-(4-(2,2,2-trifluoroethoxy)pyrimidin-5-yl)pyrimidine-4-carboxamide] has an IC50 [1] of 1.6 nM, an IC50 [2] of 290 nM and an IC50 [3] of 1.1 nM.
O=C(Nc1cncnc1OCC(F)(F)F)c1ccnc(Nc2ccc(OC(F)F)nc2)n1 [Example 73, 2-((6-(Difluoromethoxy)pyridin-3-yl)amino)-N-(4-(2,2,2-trifluoroethoxy)pyrimidin-5-yl)pyrimidine-4-carboxamide] showed an IC50 [1] of 0.26 nM, an IC50 [2] of 22 nM and an IC50 [3] of 0.18 nM.
With CC(C)OCCCNc1nccc(C(=O)Nc2cncnc2OCC(F)(F)F)n1 [Example 74, 2-((3-Isopropoxypropyl)amino)-N-(4-(2,2,2-trifluoroethoxy)pyrimidin-5-yl)pyrimidine-4-carboxamide] the IC50 [1] was 5.9 nM, the IC50 [2] was 890 nM and the IC50 [3] was 4.5 nM.
With O=C(Nc1cncnc1Nc1ccccc1)c1ccnc(Nc2ccccc2)n1 [Example 75, 2-(Phenylamino)-N-(4-(phenylamino)pyrimidin-5-yl)pyrimidine-4-carboxamide] the IC50 [1] was 48 nM, the IC50 [2] was 4500 nM and the IC50 [3] was 33 nM.
O=C(Nc1cncnc1OCC(F)(F)F)c1ccnc(Nc2ccccc2)n1 [Example 76, 2-(Phenylamino)-N-(4-(2,2,2-trifluoroethoxy)pyrimidin-5-yl)pyrimidine-4-carboxamide] was tested, and the IC50 [1] was 1.1 nM, the IC50 [2] was 77 nM and the IC50 [3] was 0.56 nM.
Work on COc1ccc(Nc2nccc(C(=O)Nc3cncnc3OCC(F)(F)F)n2)cc1 [Example 77, 2-((4-Methoxyphenyl)amino)-N-(4-(2,2,2-trifluoroethoxy)pyrimidin-5-yl)pyrimidine-4-carboxamide] yielded an IC50 [1] of 0.79 nM, an IC50 [2] of 100 nM and an IC50 [3] of 0.47 nM.
COc1ccc(Nc2nccc(C(=O)Nc3cncnc3Nc3ccc(OC)cc3)n2)cc1 [Example 78, 2-Amino-N-(6-methylpyridin-3-yl)pyrimidine-4-carboxamide 2-((4-methoxyphenyl)amino)-N-(4-((4-methoxyphenyl)amino)pyrimidin-5-yl)pyrimidine-4-carboxamide] showed an IC50 [1] of 28 nM, an IC50 [2] of 2900 nM and an IC50 [3] of 15 nM.
With O=C(Nc1cncnc1NCC1CC1)c1ccnc(Nc2ccccc2)n1 [Example 79, N-(4-((Cyclopropylmethyl)amino)pyrimidin-5-yl)-2-(phenylamino)pyrimidine-4-carboxamide] the IC50 [1] was 160 nM, the IC50 [2] was 8000 nM and the IC50 [3] was 98 nM.
